Experimental data reported in US20260007758A1, “SO[…]-2 RECEPTOR (SST2R) NON-PEPTIDE DRUG CONJUGATES AND USES THEREOF” (Crinetics Pharmaceuticals, Inc., priority 2024, published 2026).

Assays:
Format in all cases: cell-based
[1] = test system: NCI-H524 human small cell lung cancer cells; assay: H524 assay: inhibition of cell proliferation (CellTiter Glo); details: 2 h treatment, washout, additional 70 h incubation
In short: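 NCI-H524 cells were exposed for 2 h to NDC in an 11-point two-fold series starting at 1 uM. The drug was then washed out and cells grew a further 70 h. CellTiter Glo luminescence gave % inhibition versus untreated control, and IC50 came from a four-parameter nonlinear regression.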

[2] = biological target: T1, human somatostatin receptor subtype 2 (Homo sapiens, UniProt P30874); assay: Functional assay for SSTR2 agonists (HTRF cAMP); details: CHO-K1 cells stably expressing human SST2; NKH477-stimulated cAMP; 20 min at 37 C; read-out: hSST2 cAMP Avg EC50
T1 construct: expressed in transfected cells
In short: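 CHO-K1 cells stably expressing human SSTR2 treated with compound (typically 0-10,000 nM final) for 20 min at 37 °C. Lysate cAMP measured by HTRF (665/620 nm ratio), converted via standard curve; EC50 from cAMP vs concentration.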

[3] = biological target: T2, SST2 (Homo sapiens, UniProt P30874); assay: PathHunter CHO-K1 SST2 Internalization Assay; details: PathHunter CHO-K1 SST2 cells; 90 min at 37 C; luminescence; read-out: Internalization EC50
T2 construct: host or cells: PathHunter CHO-K1 SST2 cells
In short: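 CHO-K1 cells expressing human SST2, 2500 cells/well, grown 48 h, then exposed 90 min at 37 C to 11-point 1:3 NDC dilutions (final top 10 uM). Beta-Glo luminescence after 60 min at room temperature; four-parameter IC50, duplicate mean, background-corrected.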

T1 sequence (P30874 whole entry): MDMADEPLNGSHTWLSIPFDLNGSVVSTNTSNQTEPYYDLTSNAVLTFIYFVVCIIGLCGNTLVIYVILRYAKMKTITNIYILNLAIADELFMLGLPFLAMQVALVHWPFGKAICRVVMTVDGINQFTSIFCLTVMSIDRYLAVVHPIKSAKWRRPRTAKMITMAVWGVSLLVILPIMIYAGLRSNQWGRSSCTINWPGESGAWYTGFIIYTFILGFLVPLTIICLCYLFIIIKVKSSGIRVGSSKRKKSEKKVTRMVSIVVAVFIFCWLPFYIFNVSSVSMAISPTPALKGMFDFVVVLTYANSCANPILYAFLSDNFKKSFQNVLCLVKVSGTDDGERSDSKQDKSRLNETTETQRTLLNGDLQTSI
T2 sequence (P30874 whole entry): as above

| SMILES | EC50 [1] [nM] | EC50 [2] [nM] | EC50 [3] [nM] |
| --- | --- | --- | --- |
| CC[C@H](C)[C@@H]([C@@H](CC(=O)N1CCC[C@H]1[C@H](OC)[C@@H](C)C(=O)N[C@H](C)[C@@H](O)c1ccccc1)OC)N(C)C(=O)[C@@H](NC(=O)[C@H](C(C)C)N(C)C(=O)OCc1ccc(NC(=O)[C@H](CCCNC(N)=O)NC(=O)[C@@H](NC(=O)CCOCCC(=O)NCCNc2ncc(-c3cc(C)cc(F)c3)c(N3CCC(N)CC3)c2-c2nc3ccc(Cl)cc3[nH]2)C(C)C)c(O[C@@H]2O[C@H](C(=O)N(C)CC(=O)O)[C@@H](O)[C@H](O)[C@H]2O)c1)C(C)C [Compound 216] | 8.6 | 0.076 | 3 |
| CC[C@H](C)[C@@H]([C@@H](CC(=O)N1CCC[C@H]1[C@H](OC)[C@@H](C)C(=O)N[C@H](C)[C@@H](O)c1ccccc1)OC)N(C)C(=O)[C@@H](NC(=O)[C@H](C(C)C)N(C)C(=O)OCc1ccc(NC(=O)[C@H](CCCNC(N)=O)NC(=O)[C@@H](NC(=O)CCOCCC(=O)NCCNc2ncc(-c3cc(C)cc(F)c3)c(N3CCC(N)CC3)c2-c2nc3ccc(Cl)cc3[nH]2)C(C)C)c(O[C@@H]2O[C@H](C(=O)N(C)C)[C@@H](O)[C@H](O)[C@H]2O)c1)C(C)C [Compound 217] | 6.9 | 0.093 | 6 |
| CC[C@H](C)[C@@H]([C@@H](CC(=O)N1CCC[C@H]1[C@H](OC)[C@@H](C)C(=O)N[C@H](C)[C@@H](O)c1ccccc1)OC)N(C)C(=O)[C@@H](NC(=O)[C@H](C(C)C)N(C)C(=O)OCc1ccc(NC(=O)[C@H](CCCNC(N)=O)NC(=O)[C@@H](NC(=O)CCOCCC(=O)NCCNc2ncc(-c3cc(C)cc(F)c3)c(N3CCC(N)CC3)c2-c2nc3ccc(Cl)cc3[nH]2)C(C)C)c(O[C@@H]2O[C@H](C(=O)N(C)CCS(=O)(=O)O)[C@@H](O)[C@H](O)[C@H]2O)c1)C(C)C [Compound 218] | 7 | 0.07 | 2.8 |
| CC[C@H](C)[C@@H]([C@@H](CC(=O)N1CCC[C@H]1[C@H](OC)[C@@H](C)C(=O)N[C@H](C)[C@@H](O)c1ccccc1)OC)N(C)C(=O)[C@@H](NC(=O)[C@H](C(C)C)N(C)C(=O)OCc1ccc(NC(=O)[C@H](CCCNC(N)=O)NC(=O)[C@@H](NC(=O)[C@H](CCCO)NC(=O)CCOCCC(=O)NCCNc2ncc(-c3cc(C)cc(F)c3)c(N3CCC(N)CC3)c2-c2nc3cc(Cl)ccc3[nH]2)C(C)C)c(O[C@@H]2O[C@H](C(=O)NCC(=O)O)[C@@H](O)[C@H](O)[C@H]2O)c1)C(C)C [Compound 219] | 7.5 | 0.099 | 2.7 |
| CC[C@H](C)[C@@H]([C@@H](CC(=O)N1CCC[C@H]1[C@H](OC)[C@@H](C)C(=O)N[C@H](C)[C@@H](O)c1ccccc1)OC)N(C)C(=O)[C@@H](NC(=O)[C@H](C(C)C)N(C)C(=O)OCc1ccc(NC(=O)[C@H](CCCNC(N)=O)NC(=O)[C@@H](NS(=O)(=O)C[C@H](C)NC(=O)CCOCCC(=O)NCCNc2ncc(-c3cc(C)cc(F)c3)c(N3CCC(N)CC3)c2-c2nc3ccc(Cl)cc3[nH]2)C(C)C)c(O[C@@H]2O[C@H](C(=O)N(C)CC(=O)O)[C@@H](O)[C@H](O)[C@H]2O)c1)C(C)C [Compound 220] | 7.6 | 0.077 | 3.1 |
| CC[C@H](C)[C@@H]([C@@H](CC(=O)N1CCC[C@H]1[C@H](OC)[C@@H](C)C(=O)N[C@H](C)[C@@H](O)c1ccccc1)OC)N(C)C(=O)[C@@H](NC(=O)[C@H](C(C)C)N(C)C(=O)OCc1ccc(NC(=O)[C@H](C)NC(=O)[C@@H](NS(=O)(=O)C[C@H](C)NC(=O)CCOCCC(=O)NCCNc2ncc(-c3cc(C)cc(F)c3)c(N3CCC(N)CC3)c2-c2nc3ccc(Cl)cc3[nH]2)C(C)C)c(O[C@@H]2O[C@H](C(=O)N(C)CC(=O)O)[C@@H](O)[C@H](O)[C@H]2O)c1)C(C)C [Compound 221] | 27 | 0.15 | 8.8 |
| CC[C@H](C)[C@@H]([C@@H](CC(=O)N1CCC[C@H]1[C@H](OC)[C@@H](C)C(=O)N[C@H](C)[C@@H](O)c1ccccc1)OC)N(C)C(=O)[C@@H](NC(=O)[C@H](C(C)C)N(C)C(=O)OCc1ccc(NC(=O)[C@H](CCCNC(N)=O)NC(=O)[C@@H](NC(=O)CCOCCC(=O)NCCNc2ncc(-c3cc(C)cc(F)c3)c(N3CCC(N)CC3)c2-c2nc3ccc(Cl)cc3[nH]2)C(C)C)c(O[C@@H]2O[C@H](C(=O)N3CCNCC3)[C@@H](O)[C@H](O)[C@H]2O)c1)C(C)C [Compound 222] | 1.9 | 0.11 | 4.3 |
| CC[C@H](C)[C@@H]([C@@H](CC(=O)N1CCC[C@H]1[C@H](OC)[C@@H](C)C(=O)N[C@H](C)[C@@H](O)c1ccccc1)OC)N(C)C(=O)[C@@H](NC(=O)[C@H](C(C)C)N(C)C(=O)OCc1ccc(NC(=O)[C@H](CCCNC(N)=O)NC(=O)[C@@H](NC(=O)CCOCCC(=O)NCCNc2ncc(-c3cc(C)cc(F)c3)c(N3CCC(N)CC3)c2-c2nc3ccc(Cl)cc3[nH]2)C(C)C)c(O[C@@H]2O[C@H](C(=O)N3CCOCC3)[C@@H](O)[C@H](O)[C@H]2O)c1)C(C)C [Compound 223] | 9.2 | 0.054 | 2.8 |
| CC[C@H](C)[C@@H]([C@@H](CC(=O)N1CCC[C@H]1[C@H](OC)[C@@H](C)C(=O)N[C@H](C)[C@@H](O)c1ccccc1)OC)N(C)C(=O)[C@@H](NC(=O)[C@H](C(C)C)N(C)C(=O)OCc1ccc(NC(=O)[C@H](CCCNC(N)=O)NC(=O)[C@@H](NC(=O)CCOCCC(=O)NCCNc2ncc(-c3cc(C)cc(F)c3)c(N3CCC(N)CC3)c2-c2nc3ccc(Cl)cc3[nH]2)C(C)C)c(O[C@@H]2O[C@H](C(=O)NCCNC(=O)CCC(=O)NS(=O)(=O)c3ccc4ccccc4c3)[C@@H](O)[C@H](O)[C@H]2O)c1)C(C)C [Compound 224] | 27 | 0.068 | 3.2 |
| CC[C@H](C)[C@@H]([C@@H](CC(=O)N1CCC[C@H]1[C@H](OC)[C@@H](C)C(=O)N[C@H](C)[C@@H](O)c1ccccc1)OC)N(C)C(=O)[C@@H](NC(=O)[C@H](C(C)C)N(C)C(=O)OCc1ccc(NC(=O)[C@H](CCCNC(N)=O)NC(=O)[C@@H](NC(=O)CCOCCC(=O)NCCNc2ncc(-c3cc(C)cc(F)c3)c(N3CCC(N)CC3)c2-c2nc3ccc(Cl)cc3[nH]2)C(C)C)c(O[C@@H]2O[C@H](C(=O)NCCCCCNC(=O)CCCCc3ccc(I)cc3)[C@@H](O)[C@H](O)[C@H]2O)c1)C(C)C [Compound 225] | 18 | 0.26 | 1.9 |
| CC[C@H](C)[C@@H]([C@@H](CC(=O)N1CCC[C@H]1[C@H](OC)[C@@H](C)C(=O)N[C@H](C)[C@@H](O)c1ccccc1)OC)N(C)C(=O)[C@@H](NC(=O)C(C(C)C)N(C)C(=O)OCc1ccc(NC(=O)[C@H](CCCNC(N)=O)NC(=O)[C@@H](NC(=O)CCOCCC(=O)NCCNc2ncc(-c3cc(C)cc(F)c3)c(N3CCC(N)CC3)c2-c2nc3ccc(Cl)cc3[nH]2)C(C)C)c(O[C@@H]2O[C@H](C(=O)N3CCN(C)CC3)[C@@H](O)[C@H](O)[C@H]2O)c1)C(C)C (stereo partly drawn) [Compound 226] | 4.3 | 0.28 | 9.3 |
| CC[C@H](C)[C@@H]([C@@H](CC(=O)N1CCC[C@H]1[C@H](OC)[C@@H](C)C(=O)N[C@H](C)[C@@H](O)c1ccccc1)OC)N(C)C(=O)[C@@H](NC(=O)C(C(C)C)N(C)C(=O)OCc1ccc(NC(=O)[C@H](CCCNC(N)=O)NC(=O)[C@@H](NC(=O)CCOCCC(=O)NCCNc2ncc(-c3cc(C)cc(F)c3)c(N3CCC(N)CC3)c2-c2nc3ccc(Cl)cc3[nH]2)C(C)C)c(O[C@@H]2O[C@H](C(=O)N3CCN(CC(=O)O)CC3)[C@@H](O)[C@H](O)[C@H]2O)c1)C(C)C (stereo partly drawn) [Compound 227] | 11 | 0.078 | 3.1 |
| CC[C@H](C)[C@@H]([C@@H](CC(=O)N1CCC[C@H]1[C@H](OC)[C@@H](C)C(=O)N[C@H](C)[C@@H](O)c1ccccc1)OC)N(C)C(=O)[C@@H](NC(=O)C(C(C)C)N(C)C(=O)OCc1ccc(NC(=O)[C@H](CCCNC(N)=O)NC(=O)[C@@H](NC(=O)CCOCCC(=O)NCCNc2ncc(-c3cc(C)cc(F)c3)c(N3CCC(N)CC3)c2-c2nc3ccc(Cl)cc3[nH]2)C(C)C)c(O[C@@H]2O[C@H](C(=O)N3CCCCC3)[C@@H](O)[C@H](O)[C@H]2O)c1)C(C)C (stereo partly drawn) [Compound 228] | 36 | 0.26 | 10 |
| CC[C@H](C)[C@@H]([C@@H](CC(=O)N1CCC[C@H]1[C@H](OC)[C@@H](C)C(=O)N[C@H](C)[C@@H](O)c1ccccc1)OC)N(C)C(=O)[C@@H](NC(=O)C(C(C)C)N(C)C(=O)OCc1ccc(NC(=O)[C@H](CCCNC(N)=O)NC(=O)[C@@H](NC(=O)CCOCCC(=O)NCCNc2ncc(-c3cc(C)cc(F)c3)c(N3CCC(N)CC3)c2-c2nc3ccc(Cl)cc3[nH]2)C(C)C)c(O[C@@H]2O[C@H](C(=O)N3CCN(CCO)CC3)[C@@H](O)[C@H](O)[C@H]2O)c1)C(C)C (stereo partly drawn) [Compound 229] | 4 | 0.1 | 4.8 |
| CC[C@H](C)[C@@H]([C@@H](CC(=O)N1CCC[C@H]1[C@H](OC)[C@@H](C)C(=O)N[C@H](C)[C@@H](O)c1ccccc1)OC)N(C)C(=O)[C@@H](NC(=O)[C@H](C(C)C)N(C)C(=O)OCc1ccc(NC(=O)[C@H](CCCNC(N)=O)NC(=O)[C@@H](NC(=O)CCOCCC(=O)NCCNc2ncc(-c3cc(C)cc(F)c3)c(N3CCC(N)CC3)c2-c2nc3ccc(Cl)cc3[nH]2)C(C)C)c(O[C@@H]2O[C@H](C(=O)NCCOCCC(=O)O)[C@@H](O)[C@H](O)[C@H]2O)c1)C(C)C [Compound 230] | 14 | 0.095 | 4.2 |
